Reference: patent publication US20250145589A1, “PYRIDINE DERIVATIVE AND USE THEREOF” (SICHUAN HUIYU PHARMACEUTICAL CO., LTD., priority 2021, published 2025)

Assays:
[1] = tested on: MIA PaCa-2 cells (KRAS G12C mutant); experiment: MIA PaCa-2 cell anti-proliferation (CellTiter-Glo); format: cell-based; conditions: Homo sapiens, 72 h; MIA Paca-2 cells, 3 days, Table 7; read-out: MIA PaCa-2 (IC50)
How it was run: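 Viable-cell luminescence (CellTiter-Glo, ≥30 min at 25 °C) measured after a 3-day, 37 °C exposure to compounds at 9 points, 4-fold spaced, in DMEM containing 10% FBS plus 2.5% horse serum. IC50 derived versus no-inhibitor wells.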

[2] = tested on: MIA PaCa-2-AMGR drug-resistant cell line; experiment: MIA PaCa-2-AMGR drug-resistant cell proliferation inhibitory activity test; format: cell-based; conditions: 72 h, MIA PaCa-2-AMGR drug-resistant cells, 3 days incubation, CellTiter-Glo
How it was run: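 Viability was read by CellTiter-Glo luminescence after 3 days of compound exposure (8 points, 5-fold serial dilution), with IC50 derived relative to untreated control. Cells: AMG510-resistant MIA PaCa-2 (selected stepwise to 1 μM AMG510), 4×10^3/well, DMEM + 10% FBS + 2.5% horse serum, 37° C.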

| SMILES | IC50 [1] | IC50 [2] |
| --- | --- | --- |
| COc1ncc(-c2ccc3ncnc(N4CCC5(CC4)CN(C(=O)/C=C/C(C)=O)C5)c3c2)cc1NS(=O)(=O)c1sc(C)nc1C [Example 178, (E)-N-(2-methoxy-5-(4-(2-(4-oxopent-2-enoyl)-2,7-diazaspiro[3.5]nonan-7-yl)quinazolin-6-yl)pyridin-3-yl)-2,4-dimethyl-thiazole-5-sulfonamide] | 43.1 nM | 34 nM |
| COC(=O)c1ncc(-c2ccc3ncnc(N4CCN(C(=O)/C=C/C(C)=O)CC4)c3c2)cc1NS(=O)(=O)c1ccc(F)cc1F [Example 181, methyl (E)-3-((2,4-difluoro-phenyl)sulfonamido)-5-(4-(4-(4-oxopent-2-enoyl)piperazin-1-yl)quinazolin-6-yl)picolinate] | 56.2 nM | 118 nM |
| COc1ccc(Cl)c(S(=O)(=O)Nc2cc(-c3ccc4ncnc(N5CCN(C(=O)/C=C/C(C)=O)CC5)c4c3)cnc2OC)c1 [Example 184, (E)-2-chloro-5-methoxy-N-(2-methoxy-5-(4-(4-(4-oxopent-2-enoyl)piperazin-1-yl)quinazolin-6-yl)pyridin-3-yl)benzene-sulfonamide] | 60.2 nM | 176 nM |
| [2H]C([2H])([2H])Oc1ncc(-c2ccc3ncnc(N4CCN(C(=O)/C=C/C(C)=O)CC4)c3c2)cc1NS(=O)(=O)c1ccc(F)cc1F [Example 191, (E)-2,4-difluoro-N-(2-(methoxy-d3)-5-(4-(4-(4-oxopent-2-enoyl)piperazin-1-yl)quinazolin-6-yl)pyridin-3-yl)benzene-sulfonamide] | 54.2 nM | 40.8 nM |
| COc1ncc(-c2ccc3ncnc(C4=CCN(C(=O)/C=C/C(C)=O)CC4)c3c2)cc1NS(=O)(=O)c1ccc(F)cc1F [Example 198, (E)-2,4-difluoro-N-(2-methoxy-5-(4-(1-(4-oxopent-2-enoyl)-1,2,3,6-tetrahydropyridin-4-yl)quinazolin-6-yl)pyridin-3-yl)benzenesulfonamide] | 8.7 nM | 10.7 nM |
| COc1ncc(-c2ccc3ncnc(C4=CCN(C(=O)/C=C/C(C)=O)CC4)c3c2)cc1NS(=O)(=O)c1sc(C)nc1C [Example 199, (E)-N-(2-methoxy-5-(4-(1-(4-oxopent-2-enoyl)-1,2,3,6-tetrahydropyridin-4-yl)quinazolin-6-yl)pyridin-3-yl)-2,4-dimethylthiazole-5-sulfonamide] | 41.1 nM | 19.1 nM |
| COc1ncc(-c2ccc3ncnc(C4=CCN(C(=O)/C=C/C(C)=O)CC4)c3c2)cc1NS(=O)(=O)c1ccccc1F [Example 200, (E)-2-fluoro-N-(2-methoxy-5-(4-(1-(4-oxopent-2-enoyl)-1,2,3,6-tetrahydropyridin-4-yl)quinazolin-6-yl)pyridin-3-yl)benzene-sulfonamide] | 40.5 nM | 4.3 nM |
| COc1ncc(-c2ccc3ncnc(C4=CCN(C(=O)/C=C/C(C)=O)CC4)c3c2)cc1NS(=O)(=O)c1c(F)cccc1F [Example 201, (E)-2,6-difluoro-N-(2-methoxy-5-(4-(1-(4-oxopent-2-enoyl)-1,2,3,6-tetrahydropyridin-4-yl)quinazolin-6-yl)pyridin-3-yl)benzenesulfonamide] | 31.9 nM | 11.1 nM |
| COc1ncc(-c2ccc3ncnc(C4=CCN(C(=O)/C=C/C(C)=O)CC4)c3c2)cc1NS(=O)(=O)c1c(F)cccc1Cl [Example 202, (E)-2-chloro-6-fluoro-N-(2-methoxy-5-(4-(1-(4-oxopent-2-enoyl)-1,2,3,6-tetrahydropyridin-4-yl)quinazolin-6-yl)pyridin-3-yl)benzene-sulfonamide] | 11.6 nM | 13 nM |
| COc1ncc(-c2ccc3ncnc(C4CCN(C(=O)/C=C/C(C)=O)CC4)c3c2)cc1NS(=O)(=O)c1sc(C)nc1C [Example 203, (E)-N-(2-methoxy-5-(4-(1-(4-oxopent-2-enoyl)piperidin-4-yl)quinazolin-6-yl)pyridin-3-yl)-2,4-dimethylthiazole-5-sulfonamide] | 51.4 nM | 16.7 nM |
| COc1ncc(-c2ccc3ncnc(C4CCN(C(=O)/C=C/C(C)=O)CC4)c3c2)cc1NS(=O)(=O)c1ccccc1F [Example 204, (E)-2-fluoro-N-(2-methoxy-5-(4-(1-(4-oxopent-2-enoyl)piperidin-4-yl)quinazolin-6-yl)pyridin-3-yl)benzenesulfonamide] | 115 nM | 45.8 nM |
| COc1ncc(-c2ccc3ncnc(C4CCN(C(=O)/C=C/C(C)=O)CC4)c3c2)cc1NS(=O)(=O)c1c(F)cccc1F [Example 205, (E)-2,6-difluoro-N-(2-methoxy-5-(4-(1-(4-oxopent-2-enoyl)piperidin-4-yl)quinazolin-6-yl)pyridin-3-yl) benzenesulfonamide] | 78.9 nM | 32.9 nM |
| COc1ncc(-c2ccc3ncnc(C4CCN(C(=O)/C=C/C(C)=O)CC4)c3c2)cc1NS(=O)(=O)c1c(F)cccc1Cl [Example 206, (E)-2-chloro-6-fluoro-N-(2-methoxy-5-(4-(1-(4-oxopent-2-enoyl)piperidin-4-yl)quinazolin-6-yl)pyridin-3-yl) benzenesulfonamide] | 21 nM | 6.9 nM |
| COc1ncc(-c2ccc3ncnc(N4CCN(C(=O)/C=C/C(C)=O)CC4)c3n2)cc1NS(=O)(=O)c1c(F)cncc1F [Example 210, (E)-3,5-difluoro-N-(2-methoxy-5-(4-(4-(4-oxopent-2-enoyl)piperazin-1-yl)pyrido[3,2-d]pyrimidin-6-yl)pyridin-3-yl)pyridine-4-sulfonamide] | 47.7 nM | 97.4 nM |
| COc1ncc(-c2ccc3ncnc(N4CCN(C(=O)/C=C/C(C)=O)CC4)c3n2)cc1NS(=O)(=O)c1cc(F)ccc1F [Example 217, (E)-2,5-difluoro-N-(2-methoxy-5-(4-(4-(4-oxopent-2-enoyl)piperazin-1-yl)pyrido[3,2-d]pyrimidin-6-yl)pyridin-3-yl) benzene-sulfonamide] | 21.1 nM | 21.4 nM |
| COc1ncc(-c2ccc3ncnc(N4CCN(C(=O)/C=C/C(C)=O)CC4)c3n2)cc1NS(=O)(=O)c1cccc(F)c1F [Example 218, (E)-2,3-difluoro-N-(2-methoxy-5-(4-(4-(4-oxopent-2-enoyl)piperazin-1-yl)pyrido[3,2-d]pyrimidin-6-yl)pyridin-3-yl) benzene-sulfonamide] | 21.5 nM | 16.1 nM |
| COc1ncc(-c2ccc3ncnc(N4CCN(C(=O)/C=C/C(C)=O)CC4)c3n2)cc1NS(=O)(=O)c1c(F)cc(F)cc1F [Example 219, (E)-2,4-trifluoro-N-(2-methoxy-5-(4-(4-(4-oxopent-2-enoyl)piperazin-1-yl)pyrido[3,2-d]pyrimidin-6-yl)pyridin-3-yl) benzene-sulfonamide] | 5.8 nM | 6.4 nM |
| COc1ncc(-c2ccc3ncnc(N4CCN(C(=O)/C=C/C(C)=O)CC4)c3n2)cc1NS(=O)(=O)c1ccncc1F [Example 220, (E)-3-fluoro-N-(2-methoxy-5-(4-(4-(4-oxopent-2-enoyl)piperazin-1-yl)pyrido[3,2-d]pyrimidin-6-yl)pyridin-3-yl) pyridine-4-sulfonamide] | 58.5 nM | 212 nM |
| COc1ncc(-c2ccc3ncnc(N4CCN(C(=O)/C=C/C(C)=O)CC4)c3n2)cc1NS(=O)(=O)c1c(Cl)cncc1Cl [Example 224, (E)-3,5-dichloro-N-(2-methoxy-5-(4-(4-(4-oxopent-2-enoyl)piperazin-1-yl)pyrido[3,2-d]pyrimidin-6-yl)pyridin-3-yl) pyridine-4-sulfonamide] | 79.3 nM | 144 nM |
| COc1ncc(-c2ccc3ncnc(N4CCN(C(=O)/C=C/C(C)=O)CC4)c3n2)cc1NS(=O)(=O)c1c(F)cccc1Cl [Example 225, (E)-2-chloro-6-fluoro-N-(2-methoxy-5-(4-(4-(4-oxopent-2-enoyl)piperazin-1-yl)pyrido[3,2-d]pyrimidin-6-yl)pyridin-3-yl) benzene-sulfonamide] | 15.6 nM | 26 nM |
| COc1ncc(-c2ccc3ncnc(N4CCN(C(=O)/C=C/C(C)=O)[C@H](C)C4)c3n2)cc1NS(=O)(=O)c1ccccc1F [Example 228, (R,E)-2-fluoro-N-(2-methoxy-5-(4-(3-methyl-4-(4-oxopent-2-enoyl)piperazin-1-yl)pyrido[3,2-d]pyrimidin-6-yl)pyridin-3-yl)benzene-sulfonamide] | 34 nM | 13.5 nM |
| COc1ncc(-c2ccc3ncnc(C4CCN(C(=O)/C=C/C(C)=O)CC4)c3n2)cc1NS(=O)(=O)c1sc(C)nc1C [Example 230, (E)-N-(2-methoxy-5-(4-(1-(4-oxopent-2-enoyl)piperidin-4-yl)pyrido[3,2-d]pyrimidin-6-yl)pyridin-3-yl)-2,4-dimethylthiazol-5-sulfonamide] | 24.2 nM | 35.3 nM |
| COc1ncc(-c2ccc3ncnc(C4CCN(C(=O)/C=C/C(C)=O)CC4)c3n2)cc1NS(=O)(=O)c1c(F)cc(F)cc1F [Example 231, (E)-2,4,6-trifluoro-N-(2-methoxy-5-(4-(1-(4-oxopent-2-enoyl)piperidin-4-yl)pyrido[3,2-d]pyrimidin-6-yl)pyridin-3-yl)benzenesulfonamide] | 13.2 nM | 3.6 nM |
| COc1ncc(-c2ccc3ncnc(C4CCN(C(=O)/C=C/C(C)=O)CC4)c3n2)cc1NS(=O)(=O)c1ccccc1F [Example 232, (E)-2-fluoro-N-(2-methoxy-5-(4-(1-(4-oxopent-2-enoyl)piperidin-4-yl)pyrido[3,2-d]pyrimidin-6-yl)pyridin-3-yl)benzenesulfonamide] | 17.7 nM | 9 nM |
